Measurements reported in the supplement of paper PMC11619387.
≈ marks a conversion by molar mass, not a printed value.

What was measured:
[1] = tested on: Pseudomonas aeruginosa PAO1-Xen41; assay: Hill coefficient of concentration-effect curve (unitless); higher = steeper concentration-effect curve
Protocol: (§1)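 Time-kill assays of bioluminescent P. aeruginosa PAO1-Xen41 (start ~5e6 CFU/mL) in 96-well plates at 37 °C, 150 rpm. Luminescence was read hourly for 20 h in cation-adjusted Mueller-Hinton broth, either non-conditioned (MH broth with or without supplements) or conditioned by one of 13 CF-associated species, then filter-sterilised and nutrient-replenished. Growth/kill rates came from log-linear regression of the exponential phase at 9-10 antibiotic concentrations, and Hill (Emax) models were fitted with drc for each replicate.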

[2] = tested on: Pseudomonas aeruginosa PAO1-Xen41; assay: EC50 of growth/kill rate concentration-effect curve
Protocol: as §1

[3] = tested on: Pseudomonas aeruginosa PAO1-Xen41; assay: Emax, maximal drug effect on net growth rate (fitted lower asymptote) (per hour (slope of log luminescence)); higher = weaker maximal killing (less negative)
Protocol: as §1

CCC(C)CCCC(=O)N[C@@H](CCN)C(=O)N[C@H](C(=O)N[C@@H](CCN)C(=O)N[C@H]1CCNC(=O)[C@H]([C@@H](C)O)NC(=O)[C@H](CCN)NC(=O)[C@H](CCN)NC(=O)[C@H](CC(C)C)NC(=O)[C@@H](CC(C)C)NC(=O)[C@H](CCN)NC1=O)[C@@H](C)O (stereo partly drawn) [colistin]
Settings	EC50, [2] [µg/mL]	Emax, [3]	Hill coefficient, [1]
medium (conditioned by secondary species or non-conditioned control): A. baumannii	3.78 (≈ 3.27 µM)	-0.97093	5.23
medium (conditioned by secondary species or non-conditioned control): A. fumigatus	4 (≈ 3.47 µM)	-1.07	0.809
medium (conditioned by secondary species or non-conditioned control): A. xylosoxidans	3.71 (≈ 3.21 µM)	-0.971	4.77
medium (conditioned by secondary species or non-conditioned control): B. cepacia	2.64 (≈ 2.28 µM)	-1.015	1.13
medium (conditioned by secondary species or non-conditioned control): C. albicans	1.65 (≈ 1.43 µM)	-0.9963	1.39
medium (conditioned by secondary species or non-conditioned control): H. influenzae	0.634 (≈ 0.549 µM)	-0.1151	7.12
medium (conditioned by secondary species or non-conditioned control): M. abcessus	1.56 (≈ 1.35 µM)	-0.976	2.24
medium (conditioned by secondary species or non-conditioned control): M. avium	1.04 (≈ 0.899 µM)	-0.954	1.72
medium (conditioned by secondary species or non-conditioned control): M. catarrhalis	0.325 (≈ 0.282 µM)	-0.139	14.6
medium (conditioned by secondary species or non-conditioned control): MH broth	1.45 (≈ 1.26 µM)	-0.963	2.54
medium (conditioned by secondary species or non-conditioned control): MH broth + ADC	0.607	-0.901	11.8
medium (conditioned by secondary species or non-conditioned control): MH broth + LHB + NAD	0.324	-0.156	12.4
medium (conditioned by secondary species or non-conditioned control): MH broth + glucose	1.22	-0.9802	2.92
medium (conditioned by secondary species or non-conditioned control): R. mannitolilytica	1.32 (≈ 1.14 µM)	-0.958	1.77
medium (conditioned by secondary species or non-conditioned control): S. aureus	1.08 (≈ 0.939 µM)	-0.966	2.47
medium (conditioned by secondary species or non-conditioned control): S. maltophilia	3.83 (≈ 3.31 µM)	-0.97063	7.36
medium (conditioned by secondary species or non-conditioned control): S. pneumoniae	0.325 (≈ 0.281 µM)	-0.117	7.9

C[C@@H]1O[C@@H]1P(=O)(O)O [fosfomycin]
Settings	EC50, [2] [µg/mL]	Emax, [3]	Hill coefficient, [1]
medium (conditioned by secondary species or non-conditioned control): A. baumannii	149 (≈ 1080 µM)	-0.132	2.21
medium (conditioned by secondary species or non-conditioned control): A. fumigatus	16.6 (≈ 120 µM)	-0.117	1.48
medium (conditioned by secondary species or non-conditioned control): A. xylosoxidans	201 (≈ 1450 µM)	-0.189	2.09
medium (conditioned by secondary species or non-conditioned control): B. cepacia	81.7 (≈ 592 µM)	-0.0776	3.68
medium (conditioned by secondary species or non-conditioned control): C. albicans	10.6 (≈ 77 µM)	-0.134	1.72
medium (conditioned by secondary species or non-conditioned control): H. influenzae	72.3 (≈ 524 µM)	-0.354	1.57
medium (conditioned by secondary species or non-conditioned control): M. abcessus	43.8 (≈ 318 µM)	-0.177	2.3
medium (conditioned by secondary species or non-conditioned control): M. avium	34.4 (≈ 249 µM)	-0.196	1.9
medium (conditioned by secondary species or non-conditioned control): M. catarrhalis	66.6 (≈ 483 µM)	-0.126	2.47
medium (conditioned by secondary species or non-conditioned control): MH broth	22.4 (≈ 163 µM)	-0.173	2.99
medium (conditioned by secondary species or non-conditioned control): MH broth + ADC	23.6	-0.194	2.25
medium (conditioned by secondary species or non-conditioned control): MH broth + LHB + NAD	47	-0.233	1.88
medium (conditioned by secondary species or non-conditioned control): MH broth + glucose	17.7	-0.136	1.47
medium (conditioned by secondary species or non-conditioned control): R. mannitolilytica	65.4 (≈ 473 µM)	-0.111	3.11
medium (conditioned by secondary species or non-conditioned control): S. aureus	47.35 (≈ 343 µM)	-0.122	3.29
medium (conditioned by secondary species or non-conditioned control): S. maltophilia	81.9 (≈ 593 µM)	-0.102	2.83
medium (conditioned by secondary species or non-conditioned control): S. pneumoniae	45.9 (≈ 332 µM)	-0.276	1.54

C[C@@H](O)[C@H]1C(=O)N2C(C(=O)O)=C(S[C@@H]3CN[C@H](C(=O)N(C)C)C3)[C@H](C)[C@H]12 [meropenem]
Settings	EC50, [2] [µg/mL]	Emax, [3]	Hill coefficient, [1]
medium (conditioned by secondary species or non-conditioned control): A. baumannii	2.68 (≈ 6.99 µM)	-0.0771	6.64
medium (conditioned by secondary species or non-conditioned control): A. fumigatus	0.389 (≈ 1.01 µM)	-0.093	7.42
medium (conditioned by secondary species or non-conditioned control): A. xylosoxidans	1.25 (≈ 3.26 µM)	-0.0831	4.28
medium (conditioned by secondary species or non-conditioned control): B. cepacia	0.916 (≈ 2.39 µM)	-0.0593	12.1
medium (conditioned by secondary species or non-conditioned control): C. albicans	0.784 (≈ 2.04 µM)	-0.12	3.15
medium (conditioned by secondary species or non-conditioned control): H. influenzae	0.6259 (≈ 1.63 µM)	-0.172	2.15
medium (conditioned by secondary species or non-conditioned control): M. abcessus	0.609 (≈ 1.59 µM)	-0.0816	5.75
medium (conditioned by secondary species or non-conditioned control): M. avium	0.337 (≈ 0.878 µM)	-0.0509	7.81
medium (conditioned by secondary species or non-conditioned control): M. catarrhalis	1.91 (≈ 4.99 µM)	-0.0746	6.15
medium (conditioned by secondary species or non-conditioned control): MH broth	0.612 (≈ 1.6 µM)	-0.0947	4.27
medium (conditioned by secondary species or non-conditioned control): MH broth + ADC	0.2684	-0.0675	15.3
medium (conditioned by secondary species or non-conditioned control): MH broth + LHB + NAD	0.663	-0.125	3.73
medium (conditioned by secondary species or non-conditioned control): MH broth + glucose	0.628	-0.0923	3
medium (conditioned by secondary species or non-conditioned control): R. mannitolilytica	0.6203 (≈ 1.62 µM)	-0.0818	8.16
medium (conditioned by secondary species or non-conditioned control): S. aureus	0.7071 (≈ 1.84 µM)	-0.0714	10
medium (conditioned by secondary species or non-conditioned control): S. maltophilia	1.18 (≈ 3.07 µM)	-0.0918	3.29
medium (conditioned by secondary species or non-conditioned control): S. pneumoniae	0.938 (≈ 2.45 µM)	-0.189	4.34
